Measured values taken from ChEMBL document CHEMBL1201862, “PubChem BioAssay data set” (2004).
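Grown in 96-well plates, cells were treated for 48 hours with each compound at five concentrations. Insufficient inhibition: endpoint recorded as highest concentration tested. Abbreviation: GI50, concentration required for 50% inhibition of growth.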 The source made the active and inactive calls. Rule as the data show it: active = GI50 up to about 1.1 µM and inactive = higher.

How the values were obtained:
Experiment in all cases: NCI tumour cell line growth inhibition, 48 h
HCC 2998 = tested on: HCC 2998
SN12C = tested on: SN12C
SK-MEL-5 = tested on: SK-MEL-5
T47D = tested on: T47D
OVCAR-5 = tested on: OVCAR-5
SR = tested on: SR
UACC-257 = tested on: UACC-257
MDA-MB-435 = tested on: MDA-MB-435
IGROV-1 = tested on: IGROV-1
BT-549 = tested on: BT-549
TK-10 = tested on: TK-10
SW-620 = tested on: SW-620
Malme-3M = tested on: Malme-3M
DU-145 = tested on: DU-145
HOP-92 = tested on: HOP-92
K562 = tested on: K562
SF-295 = tested on: SF-295
KM12 = tested on: KM12
CCRF-CEM = tested on: CCRF-CEM
NCI-H460 = tested on: NCI-H460

| Compound | GI50 (HCC 2998) | GI50 (SN12C) | GI50 (SK-MEL-5) | GI50 (T47D) | GI50 (OVCAR-5) | GI50 (SR) | GI50 (UACC-257) | GI50 (MDA-MB-435) | GI50 (IGROV-1) | GI50 (BT-549) | GI50 (TK-10) | GI50 (SW-620) | GI50 (Malme-3M) | GI50 (DU-145) | GI50 (HOP-92) | GI50 (K562) | GI50 (SF-295) | GI50 (KM12) | GI50 (CCRF-CEM) | GI50 (NCI-H460) |
| --- | --- | --- | --- | --- | --- | --- | --- | --- | --- | --- | --- | --- | --- | --- | --- | --- | --- | --- | --- | --- |
| C/C(=N\O)c1cccc[n+]1Cc1ccccc1 | > 100 µM (inactive) | > 100 µM (inactive) | > 100 µM (inactive) | > 100 µM (inactive) | > 100 µM (inactive) | > 100 µM (inactive) | > 100 µM (inactive) | > 100 µM (inactive) | > 100 µM (inactive) | > 100 µM (inactive) | > 100 µM (inactive) | > 100 µM (inactive) | > 100 µM (inactive) | > 100 µM (inactive) | > 100 µM (inactive) | > 100 µM (inactive) | > 100 µM (inactive) | > 100 µM (inactive) | > 100 µM (inactive) | > 100 µM (inactive) |
| COc1ccccc1/C=N/Nc1nnc2c3ccccc3c3ncccc3c2n1 | 71.9 µM (inactive) | 87.5 µM (inactive) | 89.5 µM (inactive) | 39.7 µM (inactive) | 79.4 µM (inactive) | 39.9 µM (inactive) | > 100 µM (inactive) | > 100 µM (inactive) | 53.1 µM (inactive) | 41.7 µM (inactive) | 28.6 µM (inactive) | > 100 µM (inactive) | 49.1 µM (inactive) | > 100 µM (inactive) | 14.6 µM (inactive) | 70.8 µM (inactive) | 6.14 µM (inactive) | > 100 µM (inactive) | 17.6 µM (inactive) | 45.1 µM (inactive) |
| O=C1C(Cl)=C(Cl)C(=O)N1c1ccc(F)cc1 [FLUOROIMIDE] | 19.6 µM (inactive) | 19.1 µM (inactive) | 38.3 µM (inactive) | 17.8 µM (inactive) | 20.9 µM (inactive) | 6.98 µM (inactive) | 36.1 µM (inactive) | 17.9 µM (inactive) | 18.6 µM (inactive) | 16.5 µM (inactive) | 18.7 µM (inactive) | 16.9 µM (inactive) | 17.2 µM (inactive) | 37.9 µM (inactive) | 17.6 µM (inactive) | 5.11 µM (inactive) | > 53.2 µM (inactive) | 20.8 µM (inactive) | 2.75 µM (inactive) | > 83.6 µM (inactive) |
| CCCCc1c2c(nc3c1CCC/C3=C\c1ccccc1)C(=O)C(CN(C)C)CC2 (stereo not given) | 28 µM (inactive) | 20.1 µM (inactive) | 16.9 µM (inactive) | 3.61 µM (inactive) | 18.2 µM (inactive) | 2.76 µM (inactive) | 17 µM (inactive) | 17.2 µM (inactive) | 18.3 µM (inactive) | 4.32 µM (inactive) | 15.7 µM (inactive) | 10.4 µM (inactive) | 22.1 µM (inactive) | 15.6 µM (inactive) | 16.6 µM (inactive) | 6.89 µM (inactive) | 16.7 µM (inactive) | 16.9 µM (inactive) | 3.17 µM (inactive) | 17.3 µM (inactive) |
| Oc1ccc2ccccc2c1CN(Cc1c(O)ccc2ccccc12)C1CCCCC1 | 14.6 µM (inactive) | 14.4 µM (inactive) | 14.9 µM (inactive) | 31.9 µM (inactive) | 41.9 µM (inactive) | 21.3 µM (inactive) | 15.3 µM (inactive) | 19.2 µM (inactive) | 11.8 µM (inactive) | 19.8 µM (inactive) | 17.3 µM (inactive) | 20.1 µM (inactive) | 15.8 µM (inactive) | 20.3 µM (inactive) | 18 µM (inactive) | 19.5 µM (inactive) | 37 µM (inactive) | 28.2 µM (inactive) | 27.3 µM (inactive) | 20 µM (inactive) |
| NCC(=O)NC1(c2cc3ccccc3s2)CCCCC1 | 15.6 µM (inactive) | 79.1 µM (inactive) | 17.8 µM (inactive) | 40 µM (inactive) | 40.5 µM (inactive) | < 0.01 µM (active) | 17.4 µM (inactive) | 37.8 µM (inactive) | 61.1 µM (inactive) | 54.1 µM (inactive) | 36 µM (inactive) | 91 µM (inactive) | 17.6 µM (inactive) | > 100 µM (inactive) | 22.2 µM (inactive) | 5.68 µM (inactive) | 59.7 µM (inactive) | 40.6 µM (inactive) | 22 µM (inactive) | 33.5 µM (inactive) |
